Laboratory results taken from patent US6696267B2, “Methods and compositions for screening Icrac modulators” (Warner-Lambert Company, priority 2000, dated 2004).
pIC50, pKi: −log10 of the molar value. Where two headings read alike, the source gives them in different places.

Legend:
[1] = tested on: NFAT-driven β-lactamase synthesis (Icrac activation) in NFAT-β-lactamase Jurkat cells; assay: NFAT-β-lactamase gene-reporter assay in Jurkat cells (Jk-NFAT-βlac), CCF2-AM ratio 460/535; format: cell-based; settings: for Effect on TG-driven β-lactamase synthesis / NFAT activation / Effect on β-lactamase synthesis at 10 μM: Jurkat cells; for Effect on TG-driven β-lactamase synthesis / NFAT activation: with TG 1 μM for 4 h (FIG. 4); for Effect on β-lactamase synthesis at 10 μM: TG 1 μM (FIG. 4)
Procedure: (§1) Jurkat cell lines (Jk-NFAT-βlac) stably transfected with plasmid containing 3×NFAT-β-lactamase reporter gene (for NFAT promoter sequence see (19)), and plasmid containing CMV-β-lactamase (Jk-CMV-βlac), where CMV is a constitutively active promoter as well as HEK cells (HEK-CRE-βlac) with 3×CRE-β-lactamase (the CRE promoter contains CRE box sequence of CGTCA (20)) were obtained from Aurora Biosciences Corp (San Diego, Calif.).
Jurkat cells were grown in RPMI 1640 medium supplemented with 10% foetal bovine serum, 2 mM L-glutamine, 1 mM NEAA, 1 mM Na pyruvate, 25 mM HEPES, pH 7.4, gentamicin 100 μg/ml. HEK-293 cells were grown in MEM glutamax, supplemented with 10% FBS, gentamycin 100 μg/ml, HEPES 20 mM. Medium for stable cell propagation contained 250 μg/ml Zeocin (Jk-NFAT-βlac) or 800 μg/ml Geneticin (Jk-CMV-βlac, HEK-CRE-βlac). […] Cells were then loaded, for 1 h in the dark at room temperature, with 12 μM CCF2-AM (13). Fluorescence was monitored with a Fluostar (BMG, Germany) fluorimeter. Excitation was at 405 nm, and emission record at 460 nm and 535 nm. The ratio (460 nm/535 nm) of fluorescence unit (F.U.) was estimated after correction for background (medium without cells). HEK-CRE-βlac were stimulated using Forskolin 10 μM in the medium mentioned above (4×10^4 cells/well). All reagents were added with the stimulator agent (e.g. TG or forskolin), unless noticed.

Icrac channel = assay: Optical measurement of intracellular [Ca++] with Fura-2; format: cell-based; settings: Fura-2 as probe
Procedure: Loading with 2 μM fura-2-AM was performed with a 3×10^6 cells suspension for 30 min at 37° C., in Hanks buffer saline solution (HBSS). Cells were washed and resuspended twice to minimize extracellular dye. Fura-2 fluorescence measurements were carried out in a water-jacketed cuvette (room temperature) with continuous stirring, containing 1 ml of the cells suspension. Fluorescence was monitored with a Shimadzu spectrofluorophotometer by continuously (1 sec intervals) collecting excitation signals at 340 nm and 380 nm and emission signal at 510 nm. Maximal and minimal fluorescence were obtained by adding ionomycin 25 μM and EGTA (20 mM) respectively and sequentially at the end of the experiment. The ratio of excitation signals at 340 nm and 380 nm was used to calculate [Ca^++] as previously described (21) assuming a Kd of 155 nM.

[2] = tested on: NFAT-β-lactamase Jurkat cells; assay: CCF2-AM loading capacity of NFAT-β-lactamase Jurkat cells (F.U. at 535 nm); settings: for Toxic effects (weak loading): 50 μM, data not shown
[3] = tested on: constitutive β-lactamase (CMV-driven) in Jurkat cells; assay: Constitutive CMV-β-lactamase Jurkat cell assay (Jk-CMV-βlac); format: cell-based; settings: Jk-CMV-βlac cells (FIG. 6, DMSO 3%)
Procedure: as §1
Jurkat cells were grown in RPMI 1640 medium supplemented with 10% foetal bovine serum, 2 mM L-glutamine, 1 mM NEAA, 1 mM Na pyruvate, 25 mM HEPES, pH 7.4, gentamicin 100 μg/ml. HEK-293 cells were grown in MEM glutamax, supplemented with 10% FBS, gentamycin 100 μg/ml, HEPES 20 mM. Medium for stable cell propagation contained 250 μg/ml Zeocin (Jk-NFAT-βlac) or 800 μg/ml Geneticin (Jk-CMV-βlac, HEK-CRE-βlac). In a 96-well plate, 1 μM Thapsigargin (TG) was used to stimulate NFAT Jurkat cells (10^5 per well), for 4 h at 37° C., 5% CO2, in Dulbecco's Modified Essential Medium ([Ca^++] 1.8 mM) 10% FBS, gentamycin 100 μg/ml. Cells were then loaded, for 1 h in the dark at room temperature, with 12 μM CCF2-AM (13). Fluorescence was monitored with a Fluostar (BMG, Germany) fluorimeter. Excitation was at 405 nm, and emission record at 460 nm and 535 nm. The ratio (460 nm/535 nm) of fluorescence unit (F.U.) was estimated after correction for background (medium without cells). […]

[4] = tested on: NFAT-driven β-lactamase synthesis in p815 mastocyte cells; assay: NFAT-β-lactamase gene-reporter assay in p815 mastocytes (p815-NFAT-βlac); format: cell-based; settings: mastocytes (not shown)
Procedure: The mastocyte monoclonal cell line (p815-NFAT-βlac) stably transfected with plasmid containing 3×NFAT-β-lactamase were obtained as follow. Cells (1.10^7/ml) were electroporated in a 0.4 cm gap cuvette using a BioRad Gene Pulser II at 960 μF and 300V, using 20 μg of pcDNAIII 3×NFAT-β-lactamase Zeomycin expression vector (from Aurora Biosciences Corp; San Diego, Calif.) in DMEM medium. After 48 h, electroporated p815 cells were selected for 2 weeks using 250 μg/ml Zeocin (InVitrogen, Calif.). A pool of TG responding cells were first sorted, using FACS Vantage (Becton Dickinson, Calif.), and a week after, 200 cells were monosorted (one cell per well) from this pool, 15 clones grown up, and were tested as follow.
Jurkat cells were grown in RPMI 1640 medium supplemented with 10% foetal bovine serum, 2 mM L-glutamine, 1 mM NEAA, 1 mM Na pyruvate, 25 mM HEPES, pH 7.4, gentamicin 100 μg/ml. HEK-293 cells were grown in MEM glutamax, supplemented with 10% FBS, gentamycin 100 μg/ml, HEPES 20 mM. Medium for stable cell propagation contained 250 μg/ml Zeocin (Jk-NFAT-βlac) or 800 μg/ml Geneticin (Jk-CMV-βlac, HEK-CRE-βlac). […] Fluorescence was monitored with a Fluostar (BMG, Germany) fluorimeter. […] The ratio (460 nm/535 nm) of fluorescence unit (F.U.) was estimated after correction for background (medium without cells). […]

β-lactamase = β-lactamase inhibitor; cited from earlier work

## phytohemaggutinin [PHA]
[1]; PHA 1 μg/ml
  % total (TG 1 μM): 41%
  Ratio (460 nm/535 nm): 0.280 ± 0.116
[1]; PHA 10 μg/ml
  % total (TG 1 μM): 84%
  Ratio (460 nm/535 nm): 0.578 ± 0.040

## C[S+](C)[O-] [DMSO, dimethyl sulfoxide]
Icrac channel
  Effect on the Icrac channel, [Ca++]i determination: no effect
[2]; DMSO 0.1%
  F.U. at 535 nm, % control: 99.2%
[2]; DMSO 1%
  F.U. at 535 nm, % control: 96.1%
[2]; DMSO 2%
  F.U. at 535 nm, % control: 97%
[2]; DMSO 4%
  F.U. at 535 nm, % control: 107.7%
[2]; DMSO 5%
  F.U. at 535 nm, % control: 110.1%
[3]
  Effect on constitutive β-lactamase synthesis: no effect
[1]; 0.5% final concentration
  Interference with the assay: did not hinder the assay
[1]; added 3 hrs after TG activation
  Effect on β-lactamase synthesis when added after TG activation: did not block β-lactamase synthesis

## C=C1[C@@H](O)[C@@H]2O[C@]3(CC[C@H](/C=C/[C@@H](C)[C@@H]4CC(C)=C[C@@]5(O[C@H](C[C@@](C)(O)C(=O)O)CC[C@H]5O)O4)O3)CC[C@H]2O[C@@H]1[C@@H](O)C[C@H](C)[C@H]1O[C@@]2(CCCCO2)CC[C@H]1C [Okadaic acid, okadaic acid]
[4]
  Effect on β-lactamase synthesis: blocked the β-lactamase synthesis
[1]
  Effect on TG-driven β-lactamase synthesis / NFAT activation: blocked the β-lactamase synthesis

## C/C=C(/C)C(=O)O[C@H]1C(C)=C2[C@H]([C@@H]1OC(=O)CCCCCCC)[C@@](C)(OC(C)=O)C[C@H](OC(=O)CCC)[C@@]1(O)[C@H]2OC(=O)[C@@]1(C)O [TG, thapsigargin]
[1]; 5-10 μM TG
  β-lactamase synthesis versus TG concentration: decrease was observed
[1]; TG 1 μM
  % total (TG 1 μM): 100%
  Ratio (460 nm/535 nm): 0.688 ± 0.035
[1]; Table 1
  Relative potency as Icrac activator (in words): most active Icrac activator
[1]; concentrations higher than 1 μM (FIG. 2C)
  β-lactamase synthesis versus TG concentration: did not further increase the β-lactamase synthesis
[1]; conventional conditions, 0.4 mM [Ca++] (FIG. 2B)
  β-lactamase activity with thapsigargin alone: weak

## COc1ccc(CCN(C)CCCC(C#N)(c2ccc(OC)c(OC)c2)C(C)C)cc1OC (stereo not drawn) [Verapamil]
[2]
  Toxic effects (weak loading): Toxic effects were detected
[1]
  Effect on β-lactamase synthesis at 10 μM: did not have any effect

## C[C@]1(Cn2ccnn2)[C@H](C(=O)O)N2C(=O)C[C@H]2S1(=O)=O [Tazobactam]
β-lactamase
  pKi: 6.15
[1]; Homo sapiens, Jurkat, NFAT-driven (FIG. 4), read-out: IC50, block of NFAT-driven β-lactamase
  pIC50: 5.70

## C[C@@H]1C[C@@H]([C@H](O)CC2CC(=O)NC(=O)C2)C(=O)[C@@H](C)C1 [CHX, cycloheximide]
[1]; added as long as 4 hrs after TG stimulation
  Effect on β-lactamase synthesis when added after TG stimulation: inhibitory effect

## calyculin
[1]
  Effect on TG-driven β-lactamase synthesis / NFAT activation: blocked the NFAT activation in a dose dependent manner

## COc1ccc([C@@H]2Sc3ccccc3N(CCN(C)C)C(=O)[C@@H]2OC(C)=O)cc1 [Diltiazem]
[2]
  Toxic effects (weak loading): Toxic effects were detected
[1]
  Effect on β-lactamase synthesis at 10 μM: did not have any effect

## CCCCCCCCCCCCCC(=O)O[C@@H]1[C@@H](C)[C@@]2(O)[C@@H](C=C(CO)C[C@]3(O)C(=O)C(C)=C[C@@H]23)[C@@H]2C(C)(C)[C@]12OC(C)=O [PMA, phorbol myristate acetate]
[1]
  Ratio (460 nm/535 nm): 0.012 ± 0.008
[1]; PMA 10 nM
  % total (TG 1 μM): 2%

## CC(=O)C1=C(O)[C@@H]2[C@H]3c4c[nH]c5cccc(c45)C[C@H]3C(C)(C)N2C1=O [CPA, cyclopiazonic acid]
[1]
  Ratio (460 nm/535 nm): 0.407 ± 0.041
[1]; CPA 10 μM
  % total (TG 1 μM): 59%
